Source: patent US20250281679A1, “BIOMIMETIC COATING FOR ENDOVASCULAR STENT” (INSERM (Institut National de la Santé et de la Recherche …, priority 2021, published 2025)
Bridge positions count the residues as written; N and C are the ends. Square brackets hold non-standard residues; d marks the D form. Primed or numbered codes have the meaning given here. Ends that are not written are not given here. * marks the point of attachment. Lys(N3) = [N-]=[N+]=NCCCC[C@H](N)C(=O)O; Ttds = NCCCOCCOCCOCCCNC(=O)CCC(=O)*; hCys = N[C@@H](CCS)C(=O)O; PEG4′ = not defined here

Tests used:
[1] = system: Human aortic endothelial cells; assay: Human aortic endothelial cells grown 48 h on bare or peptide-coated nitinol disks; F-actin and CD31 fluorescence image analysis; type: cell-based; conditions: for CD31/Actin score: Example 2, FIG. 25, compared to bare metal disks or disks coated with PDA alone; for F-actin expression (cellular stress), Integrated Density / CD31 expression, Integrated Density: HAEC 48 h on coated nitinol disks; for F-actin expression (cellular stress), Integrated Density: phalloidin staining, compared to bare metal, FIGS. 2, 3, 5; for CD31 expression, Integrated Density: anti-CD31 domain 1 antibody, compared to other modified disks and bare controls, FIGS. 2, 4, 5; for ratio between CD31 and F-actin expression: compared to bare metal and disks coated with PDA only, FIG. 6
Experimental: Nitinol disks are left untouched (bare metal) or coated with a domain 1, domain 2 or domain 1 and 2 CD31 analog peptide. The tested peptide is grafted to the nitinol disk following a polydopamine, DBCO-PEG4-amine and azide CD31 derivative peptide using a sequential dip-coating layering procedure. After this step, all the disks are incubated with Human aortic endothelial cells for 48h. Disks are then rinsed and the cells are fixed in a formalin solution before staining. The staining is fulfilled using phalloidin coupled to AlexaFluor®488 dye (green fluorescence for Actin), DAPI is used for DNA staining and a domain 1 CD31 antibody coupled to APC is used for external Domain 1 staining. The cell adhesion and Actin/CD31 expression was evaluated by image analysis of the surface after staining.
In particular, as per FIG. 2 the bare or coated nitinol disks were placed at the bottom of culture wells. Primary Human Aortic Endothelial Cells (HAEC) were allowed to grow on the disks for a period of 48 h. The disks were thereafter rinsed with phosphate buffered saline, fixed in formalin, and processed for fluorescence microscopy. Disk-adherent cells were immersed in a solution comprising Hoechst 33342 (1 μg/ml, to stain the nuclei), phalloidin coupled to AlexaFluor®488 dye (0.5 μM, to stain F-actin fibers) and a monoclonal antibody directed against CD31 domain 1, coupled to allophycocyanin (to detect the presence and localization of intact CD31 at the cell surface) for 1 hour at 37° C., washed and mounted face down on glass bottom imaging chambers for imaging with an inverted fluorescence microscope.
Surface type is indicated on the Y axis, data are expressed as average±SD (N=6/surface type). Each dot corresponds to a specific surface modification. The F-actin expression relates the cellular stress of the cell in presence of the exogenous material.
In FIG. 4 the surface type is indicated on the Y axis. Each dot corresponds to a specific surface modification. Data are expressed as “Integrated Density” average±SD (N=6/surface type). CD31 expression relates the capacity of endothelial cells to adopt a physiologic phenotype while growing on a given substrate. An important variability is observed in terms of CD31 expression by HAEC according to the surface modification of the nitinol disks.
The effect of different peptides, belonging to the different groups, were tested in batches following the same protocol as in FIG. 6. Different peptides from each group were tested in batches and the effect of individual peptides was repeatedly assessed in separate experiments. Data from all experiments were obtained by computer-assisted analysis of images of the disk side covered with endothelial cells, captured in the blue, green and red channel of an inverted fluorescence microscope. The functional score of the peptides belonging to the different groups was calculated by multiplying the number of cells (as detected by the number of blue, Dapi+ nuclei) for the integrated density of CD31 expression (red signal provided by the binding of a mouse anti-human CD31 monoclonal antibody, clone 9G11, conjugated allophycocyanin) and their product being divided for the integrated density of the F-actin polymerization (Phalloidin coupled to a green fluorochrome).
The same protocol as in Example 1 was followed, using peptides according to the invention (SP547, SP548 SP745, SP1374, SP1072, SP1070, SP1071, SP1379 and SP1383) as defined above and the prior art peptide P8RI of sequence KWPALFVR (SEQ ID NO: 52).
The “CD31/Actin” score, resulting from the integrated density of CD31 immunostaining signal divided by the signal of phalloidin, which binds to the polymerized F-actin of the cytoskeleton, has been used to identify the physiological/non-stressed character of the arterial endothelial cells growing onto the surface of experimental disks placed at the bottom of culture wells. […]

[2] = system: endothelial cells; conditions: immobilized peptide, cited from earlier work
[3] = immobilized peptide, in vivo; cited from earlier work
[4] = system: CD31; conditions: soluble peptide; cited from earlier work

## Ac-K(N3)-GGSGGSGG-YKDDVLFYNISSMKST-NH2 (Ac-[Lys(N3)]GGSGGSGGYKDDVLFYNISSMKST-NH2; SMILES CC[C@H](C)[C@H](NC(=O)[C@H](CC(N)=O)NC(=O)[C@H](Cc1ccc(O)cc1)NC(=O)[C@H](Cc1ccccc1)NC(=O)[C@H](CC(C)C)NC(=O)[C@@H](NC(=O)[C@H](CC(=O)O)NC(=O)[C@H](CC(=O)O)NC(=O)[C@H](CCCCN)NC(=O)[C@H](Cc1ccc(O)cc1)NC(=O)CNC(=O)CNC(=O)[C@H](CO)NC(=O)CNC(=O)CNC(=O)[C@H](CO)NC(=O)CNC(=O)CNC(=O)[C@H](CCCCN=[N+]=[N-])NC(C)=O)C(C)C)C(=O)N[C@@H](CO)C(=O)N[C@@H](CO)C(=O)N[C@@H](CCSC)C(=O)N[C@@H](CCCCN)C(=O)N[C@@H](CO)C(=O)N[C@H](C(N)=O)[C@@H](C)O) [SP547]
[1]
  CD31/Actin score: equivalent to those of sections coated by other peptides according to the invention

## RDQNFVILEFP-PEG4-K(N3)-NH2 [SP1070]
[1]
  CD31/Actin score: significantly higher
  F-actin expression (cellular stress), Integrated Density: does not show an influence on the cellular stress

## Ac-K(N3)-PEG4-PRVTLDKKEAIQGGIVRVNSSVPEEK-CONH2 (Ac-[Lys(N3)][PEG4′]PRVTLDKKEAIQGGIVRVNSSVPEEK-NH2) [SP1071]
[1]
  CD31/Actin score: significantly higher

## Ac-K(N3)-(Ttds)4-PRhCTLDKKEAIQGGIVRVNhCSVPEEK-CONH2 ({Ac-Lys(N3)-Ttds-Ttds-Ttds-Ttds}-PR[hCys]TLDKKEAIQGGIVRVN[hCys]SVPEEK-NH2; disulfide 3-20) [SP1380]
[1]
  CD31 expression, Integrated Density: evident positive effect in terms of CD31 expression
  ratio between CD31 and F-actin expression: higher CD31/actin ratio

## Ac-YKDDVLFYNISSMKST-GGSGGSGG-K(N3)-NH2 (Ac-YKDDVLFYNISSMKSTGGSGGSGG[Lys(N3)]-NH2; SMILES CC[C@H](C)[C@H](NC(=O)[C@H](CC(N)=O)NC(=O)[C@H](Cc1ccc(O)cc1)NC(=O)[C@H](Cc1ccccc1)NC(=O)[C@H](CC(C)C)NC(=O)[C@@H](NC(=O)[C@H](CC(=O)O)NC(=O)[C@H](CC(=O)O)NC(=O)[C@H](CCCCN)NC(=O)[C@H](Cc1ccc(O)cc1)NC(C)=O)C(C)C)C(=O)N[C@@H](CO)C(=O)N[C@@H](CO)C(=O)N[C@@H](CCSC)C(=O)N[C@@H](CCCCN)C(=O)N[C@@H](CO)C(=O)N[C@H](C(=O)NCC(=O)NCC(=O)N[C@@H](CO)C(=O)NCC(=O)NCC(=O)N[C@@H](CO)C(=O)NCC(=O)NCC(=O)N[C@@H](CCCCN=[N+]=[N-])C(N)=O)[C@@H](C)O) [SP548]
[1]
  CD31/Actin score: equivalent to those of sections coated by other peptides according to the invention

## [Ac-K(N3)-(Ttds)4-PRVTLDKKEAIQGGIVRVNSSVPEEK-Ttds-K^#(CH2CO)-CONH2]-[QHQMLFYhC^#DDVLFYNISSMK-CONH2] (chain 1 {Ac-Lys(N3)-Ttds-Ttds-Ttds-Ttds}-PRVTLDKKEAIQGGIVRVNSSVPEEK-{Ttds-K(CH2CO)-NH2}; chain 2 QHQMLFY[hCys]DDVLFYNISSMK-NH2; also: thioether at chain B 8 to a chain's C-terminus) [SP1383]
[1]
  CD31/Actin score: significantly higher

## SHQMLFYKDDVLFYNISSS-GGSGGSGG-K(N3)-CONH2 (SHQMLFYKDDVLFYNISSSGGSGGSGG[Lys(N3)]-NH2; N-terminus assumed; SMILES CC[C@H](C)[C@H](NC(=O)[C@H](CC(N)=O)NC(=O)[C@H](Cc1ccc(O)cc1)NC(=O)[C@H](Cc1ccccc1)NC(=O)[C@H](CC(C)C)NC(=O)[C@@H](NC(=O)[C@H](CC(=O)O)NC(=O)[C@H](CC(=O)O)NC(=O)[C@H](CCCCN)NC(=O)[C@H](Cc1ccc(O)cc1)NC(=O)[C@H](Cc1ccccc1)NC(=O)[C@H](CC(C)C)NC(=O)[C@H](CCSC)NC(=O)[C@H](CCC(N)=O)NC(=O)[C@H](Cc1c[nH]cn1)NC(=O)[C@@H](N)CO)C(C)C)C(=O)N[C@@H](CO)C(=O)N[C@@H](CO)C(=O)N[C@@H](CO)C(=O)NCC(=O)NCC(=O)N[C@@H](CO)C(=O)NCC(=O)NCC(=O)N[C@@H](CO)C(=O)NCC(=O)NCC(=O)N[C@@H](CCCCN=[N+]=[N-])C(N)=O) [SP745]
[1]
  CD31/Actin score: significantly higher

## KWPALFVR [P8RI, prior art CD31-mimetic octa-peptide]
[2]; in vitro
  adhesion of endothelial cells: increases the adhesion of endothelial cells in vitro
[2]
  blood element reaction: reduces the blood element reaction
[3]
  integration of endovascular devices: enhances the integration of endovascular devices in vivo
[4]
  action on CD31: acts like a CD31 agonist

## [^#CH2CONH2GTYKSTVIVNNKEKTTAEYQ-(Ttds)4-K(N3)-NH2]-[QHQMLFYhC^#DDVLFYNISSMK-CONH2] (chain 1 GTYKSTVIVNNKEKTTAEYQ-{Ttds-Ttds-Ttds-Ttds-Lys(N3)-NH2}; chain 2 QHQMLFY[hCys]DDVLFYNISSMK-NH2; not fully specified (N-terminus); also: thioether at chain B 8 to a chain's N-terminus) [SP1379]
[1]
  CD31/Actin score: significantly higher

## hCHQMLFYKDDVLFYNISShCK-Ttds-Ttds-Ttds-Ttds-K(N3)-CONH2 ([hCys]HQMLFYKDDVLFYNISS[hCys]K-{Ttds-Ttds-Ttds-Ttds-Lys(N3)-NH2}; cysteine pairing not given here) [SP1374]
[1]
  CD31/Actin score: significantly higher
  F-actin expression (cellular stress), Integrated Density: low cellular stress (low actin expression)
  ratio between CD31 and F-actin expression: higher CD31/actin ratio
[1]; listed as 1374
  CD31 expression, Integrated Density: evident positive effect in terms of CD31 expression
[1]; listed as SP 1374
  CD31 expression, Integrated Density: consistent functional endothelial phenotype (high CD31 expression)
